Converted amounts (≈) assume the structure as drawn. The source made the active and inactive calls. The rule behind the calls is not given here.
How the values were obtained:
Staphylococcus aureus [1] = test: Antibacterial activity against methicillin-resistant Staphylococcus aureus ATCC 43300; assay type: functional
Bacillus subtilis = test: Antibacterial activity against Bacillus subtilis; assay type: functional
Enterococcus faecalis [2] = test: Antibacterial activity against Enterococcus faecalis TISTR 459; assay type: functional
Enterococcus faecalis [3] = test: Antibacterial activity against vancomycin-resistant Enterococcus faecalis ATCC 51299; assay type: functional
Salmonella typhi = test: Antibacterial activity against Salmonella typhi; assay type: functional, Salmonella enterica subsp. enterica serovar Typhi; conditions: Salmonella enterica
Shigella sonnei = test: Antibacterial activity against Shigella sonnei; assay type: functional
Pseudomonas aeruginosa [4] = test: Antibacterial activity against Pseudomonas aeruginosa; assay type: functional
Staphylococcus aureus [5] = test: Induction of morphological changes in methicillin-resistant Staphylococcus aureus ATCC 43300 assessed as cell deformation incubated for 24 hrs by scanning electron microscopic method; assay type: functional, organism-based
Pseudomonas aeruginosa [6] = test: Induction of morphological changes in Pseudomonas aeruginosa assessed as cell deformation incubated for 24 hrs by scanning electron microscopic method; assay type: functional, organism-based
Staphylococcus aureus [7] = test: Synergistic antibacterial activity against methicillin-resistant Staphylococcus aureus ATCC 43300 in presence of vancomycin; assay type: functional
Staphylococcus aureus [8] = test: Synergistic antibacterial activity against methicillin-resistant Staphylococcus aureus ATCC 43300 assessed as fractional inhibitory concentration index in presence of vancomycin; assay type: functional
Pseudomonas aeruginosa [9] = test: Synergistic antibacterial activity against Pseudomonas aeruginosa in presence of vancomycin; assay type: functional
Pseudomonas aeruginosa [10] = test: Synergistic antibacterial activity against Pseudomonas aeruginosa assessed as fractional inhibitory concentration index in presence of vancomycin; assay type: functional
Staphylococcus aureus [11] = test: Induction of morphological changes in methicillin-resistant Staphylococcus aureus ATCC 43300 assessed as cell deformation at MIC incubated for 24 hrs in presence of vancomycin by scanning electron microscopic method; assay type: functional, organism-based
Pseudomonas aeruginosa [12] = test: Induction of morphological changes in Pseudomonas aeruginosa assessed as cell deformation incubated for 24 hrs in presence of vancomycin by scanning electron microscopic method; assay type: functional, organism-based

| SMILES | MIC (Staphylococcus aureus [1]) | MIC (Bacillus subtilis) | MIC (Enterococcus faecalis [2]) | MIC (Enterococcus faecalis [3]) | MIC (Salmonella typhi) | MIC (Shigella sonnei) | MIC (Pseudomonas aeruginosa [4]) | Activity (Staphylococcus aureus [5]) | Activity (Pseudomonas aeruginosa [6]) | MIC (Staphylococcus aureus [7]) | fractional inhibitory concentration index (FICI) (Staphylococcus aureus [8]) | MIC (Pseudomonas aeruginosa [9]) | fractional inhibitory concentration index (FICI) (Pseudomonas aeruginosa [10]) | Activity (Staphylococcus aureus [11]) | Activity (Pseudomonas aeruginosa [12]) |
| --- | --- | --- | --- | --- | --- | --- | --- | --- | --- | --- | --- | --- | --- | --- | --- |
| COc1cc2oc3cc(O)c(OC)c(CC=C(C)C)c3c(=O)c2c(O)c1CC=C(C)C | 4.68 µg/mL (≈ 11 µM) | 2.34 µg/mL (≈ 5.51 µM) | 300 µg/mL (≈ 707 µM) | 300 µg/mL (≈ 707 µM) | > 300 µg/mL | > 300 µg/mL | 9.37 µg/mL (≈ 22.1 µM) | – | – | – | – | – | – | – | – |
| COc1c(O)cc2oc3cc4c(c(O)c3c(=O)c2c1CCC(C)(C)OC)CCC(C)(C)O4 | 9.37 µg/mL (≈ 21.2 µM) | 9.37 µg/mL (≈ 21.2 µM) | > 300 µg/mL | > 300 µg/mL | 300 µg/mL (≈ 678 µM) | 300 µg/mL (≈ 678 µM) | 75 µg/mL (≈ 169 µM) | – | – | – | – | – | – | – | – |
| COc1cc2oc3cc(O)c(OC)c(CC=C(C)C)c3c(=O)c2c2c1CCC(C)(C)O2 | > 300 µg/mL | 75 µg/mL (≈ 177 µM) | 75 µg/mL (≈ 177 µM) | 150 µg/mL (≈ 353 µM) | 300 µg/mL (≈ 707 µM) | 300 µg/mL (≈ 707 µM) | 300 µg/mL (≈ 707 µM) | – | – | – | – | – | – | – | – |
| CN[C@H](CC(C)C)C(=O)N[C@H]1C(=O)N[C@@H](CC(N)=O)C(=O)N[C@H]2C(=O)N[C@H]3C(=O)N[C@H](C(=O)N[C@H](C(=O)O)c4cc(O)cc(O)c4-c4cc3ccc4O)[C@H](O)c3ccc(c(Cl)c3)Oc3cc2cc(c3O[C@@H]2O[C@H](CO)[C@@H](O)[C@H](O)[C@H]2O[C@H]2C[C@](C)(N)[C@H](O)[C@H](C)O2)Oc2ccc(cc2Cl)[C@H]1O [VANCOMYCIN] | 2.34 µg/mL (≈ 1.61 µM) | 2.34 µg/mL (≈ 1.61 µM) | 2.34 µg/mL (≈ 1.61 µM) | 2.34 µg/mL (≈ 1.61 µM) | 2.34 µg/mL (≈ 1.61 µM) | 2.34 µg/mL (≈ 1.61 µM) | 2.34 µg/mL (≈ 1.61 µM) | – | – | – | – | – | – | – | – |
| COc1c(O)cc2oc3cc4c(c(O)c3c(=O)c2c1CC=C(C)C)CCC(C)(C)O4 | 1.17 µg/mL (≈ 2.85 µM) | 2.34 µg/mL (≈ 5.7 µM) | > 300 µg/mL | > 300 µg/mL | 300 µg/mL (≈ 731 µM) | 300 µg/mL (≈ 731 µM) | 2.34 µg/mL (≈ 5.71 µM) | Active | Active | 1.75 µg/mL | 0.75 | 2.63 µg/mL | 0.375 | – | – |
| COc1c(OCC=C(C)C)cc2oc3cc(OCC=C(C)C)c(CC=C(C)C)c(O)c3c(=O)c2c1CC=C(C)C | > 300 µg/mL | > 300 µg/mL | 300 µg/mL (≈ 549 µM) | – | > 300 µg/mL | > 300 µg/mL | 300 µg/mL (≈ 549 µM) | – | – | – | – | – | – | – | – |
| COc1cc2oc3cc(O)c(OC)c(CCC(C)C)c3c(=O)c2c(O)c1CCC(C)C | 37.5 µg/mL (≈ 87.5 µM) | 150 µg/mL (≈ 350 µM) | 75 µg/mL (≈ 175 µM) | – | 150 µg/mL (≈ 350 µM) | 150 µg/mL (≈ 350 µM) | 150 µg/mL (≈ 350 µM) | – | – | – | – | – | – | – | – |
| COc1c(O)cc2oc3cc4c(c(O)c3c(=O)c2c1CCC(C)(C)O)CCC(C)(C)O4 | 18.8 µg/mL (≈ 43.8 µM) | 18.8 µg/mL (≈ 43.8 µM) | > 300 µg/mL | > 300 µg/mL | 150 µg/mL (≈ 350 µM) | 300 µg/mL (≈ 700 µM) | 75 µg/mL (≈ 175 µM) | Active | Active | 4.98 µg/mL | 0.375 | 9.52 µg/mL | 0.187 | Active | Active |
| COc1cc2oc3cc(O)c(O)c(CC=C(C)C)c3c(=O)c2c(O)c1CC=C(C)C | 9.37 µg/mL (≈ 22.8 µM) | 18.8 µg/mL (≈ 45.7 µM) | 300 µg/mL (≈ 731 µM) | 300 µg/mL (≈ 731 µM) | 150 µg/mL (≈ 365 µM) | 150 µg/mL (≈ 365 µM) | 18.8 µg/mL (≈ 45.7 µM) | – | – | – | – | – | – | – | – |
| COc1cc2oc3cc(O)c(OC)c(CCC(C)(C)O)c3c(=O)c2c2c1CCC(C)(C)O2 | 150 µg/mL (≈ 339 µM) | 150 µg/mL (≈ 339 µM) | > 300 µg/mL | > 300 µg/mL | 300 µg/mL (≈ 678 µM) | 300 µg/mL (≈ 678 µM) | 300 µg/mL (≈ 678 µM) | – | – | – | – | – | – | – | – |
| COc1c(O)cc2oc3cc(O)c(CC=C(C)C)c(O)c3c(=O)c2c1CC=C(C)C [MANGOSTIN] | 0.585 µg/mL (≈ 1.43 µM) | 2.34 µg/mL (≈ 5.7 µM) | 150 µg/mL (≈ 365 µM) | 150 µg/mL (≈ 365 µM) | 18.8 µg/mL (≈ 45.7 µM) | 150 µg/mL (≈ 365 µM) | 0.292 µg/mL (≈ 0.713 µM) | Active | Active | 0.877 µg/mL | 0.375 | 0.439 µg/mL | 0.187 | – | – |
| COc1cc2oc3cc(O)c(OC)c(CCC(C)(C)OC(C)=O)c3c(=O)c2c2c1CCC(C)(C)O2 | > 300 µg/mL | 300 µg/mL (≈ 619 µM) | > 300 µg/mL | > 300 µg/mL | 300 µg/mL (≈ 619 µM) | 300 µg/mL (≈ 619 µM) | 300 µg/mL (≈ 619 µM) | – | – | – | – | – | – | – | – |
| COc1c(OS(=O)(=O)c2ccc(Br)cc2)cc2oc3cc(OS(=O)(=O)c4ccc(Br)cc4)c(CC=C(C)C)c(O)c3c(=O)c2c1CC=C(C)C | > 300 µg/mL | > 300 µg/mL | > 300 µg/mL | – | > 300 µg/mL | > 300 µg/mL | 300 µg/mL (≈ 354 µM) | – | – | – | – | – | – | – | – |
| COc1cc2oc3cc(O)c(CC=C(C)C)c(O)c3c(=O)c2c(CC=C(C)C)c1O | 9.37 µg/mL (≈ 22.8 µM) | 75 µg/mL (≈ 183 µM) | 75 µg/mL (≈ 183 µM) | – | 37.5 µg/mL (≈ 91.4 µM) | 75 µg/mL (≈ 183 µM) | 4.67 µg/mL (≈ 11.4 µM) | – | – | – | – | – | – | – | – |
| COc1cc2oc3cc(O)c(OC)c(CCC(C)(C)O)c3c(=O)c2c(O)c1CC=C(C)C | 18.8 µg/mL (≈ 42.4 µM) | 9.37 µg/mL (≈ 21.2 µM) | 150 µg/mL (≈ 339 µM) | > 300 µg/mL | 300 µg/mL (≈ 678 µM) | 300 µg/mL (≈ 678 µM) | 18.8 µg/mL (≈ 42.4 µM) | – | – | – | – | – | – | – | – |
| O=c1c2cc(O)c(O)cc2oc2cc(O)cc(O)c12 | 18.8 µg/mL (≈ 72.1 µM) | 37.5 µg/mL (≈ 144 µM) | 300 µg/mL (≈ 1150 µM) | > 300 µg/mL | > 300 µg/mL | > 300 µg/mL | 37.5 µg/mL (≈ 144 µM) | – | – | – | – | – | – | – | – |
| COc1c(O)cc2oc3cc(O)c4c(c3c(=O)c2c1CCC(C)(C)O)OC(C)(C)CC4 | 37.5 µg/mL (≈ 87.5 µM) | 37.5 µg/mL (≈ 87.5 µM) | > 300 µg/mL | > 300 µg/mL | 300 µg/mL (≈ 700 µM) | 300 µg/mL (≈ 700 µM) | 300 µg/mL (≈ 700 µM) | – | – | – | – | – | – | – | – |
| COc1cc2oc3cc(OC)c(OC)c(CC=C(C)C)c3c(=O)c2c(O)c1CC=C(C)C | > 300 µg/mL | 75 µg/mL (≈ 171 µM) | 150 µg/mL (≈ 342 µM) | 300 µg/mL (≈ 684 µM) | 300 µg/mL (≈ 684 µM) | > 300 µg/mL | 300 µg/mL (≈ 684 µM) | – | – | – | – | – | – | – | – |
| CC(C)=CCc1c(O)cc2oc3cc(O)c(O)c(CC=C(C)C)c3c(=O)c2c1O | 4.68 µg/mL (≈ 11.8 µM) | 18.8 µg/mL (≈ 47.3 µM) | 9.37 µg/mL (≈ 23.6 µM) | – | 18.8 µg/mL (≈ 47.3 µM) | 18.8 µg/mL (≈ 47.3 µM) | 18.8 µg/mL (≈ 47.3 µM) | – | – | – | – | – | – | – | – |
| COc1cc2oc3cc(O)c(CC=C(C)C)c(O)c3c(=O)c2c(CC=C(C)C)c1OC | 18.8 µg/mL (≈ 44.2 µM) | 75 µg/mL (≈ 177 µM) | 75 µg/mL (≈ 177 µM) | – | 150 µg/mL (≈ 353 µM) | 150 µg/mL (≈ 353 µM) | 18.8 µg/mL (≈ 44.2 µM) | – | – | – | – | – | – | – | – |

Source: ChEMBL document CHEMBL4725365, “Modified tetra-oxygenated xanthones analogues as anti-MRSA and P. aeruginosa agent and their synergism with vancomycin” (2020)
